One may read the IC50 as the midpoint of a concentration-inhibition curve.

Results on 9 compounds are retold here after US12215104B2, “Anti-biofilm compounds” (UNIVERSITY OF LOUISVILLE RESEARCH FOUNDATION, INC., priority 2018, dated 2025).

Structures are written as SMILES. Read-outs that look alike come from different tables or passages of the source.

One data set has as its system P. gingivalis. As to the kind of experiment: Effect on planktonic growth of P. gingivalis. Format: cell-based, P. gingivalis ATCC33277. As to conditions: incubated overnight in the presence of 40 μM compound. From the text: (§1) To assess the functional activity of the click products, compounds 28-57 (Groups I and II) and 90-124 (Group III) were examined for inhibition of P. gingivalis adherence to S. gordonii using an established biofilm model system as described in the Section 4.2.1 [41]. For each compound tested, an IC50 value for adherence inhibition was approximated after quantifying the ratio of green to red fluorescence and these values are shown in Tables 2, 3 and 4. Compounds were classified as strong (IC50<10 μM), moderate (IC50=10-20 μM) or weak (IC50>20 μM) inhibitors of adherence. Twelve compounds were identified as strong inhibitors and an additional ten compounds were classified as moderate inhibitors. […] Compounds 54, 56, 93, 95, 100, 102, 103, and 115 were also tested to determine if they affect the growth of P. gingivalis or S. gordonii. […] The sulfoxide group does impart asymmetry to the molecule; however, the mixture of enantiomers, assuming the peracid oxidation was racemic, was not separated and bioassayed. The Group III active compounds (95-117) all contain the 1,3,5-trisubstituted-2,4,6-triazine modeled after the Katzenellenbogen rendering of an active motif whereby the key leucine residues which mimicked the VXXLL receptor box lie in a triangular arrangement. While the original iteration of the Katzenellenbogen VXXLL mimics were the hydrophobic 3,5-disubstituted-di-N-alkyamino-triazine motifs, we introduced the hydrophobic 2- and 4-(fluorophenyl)amino groups at positions 3 and 5 of the 2,4,6-triazine (See Compounds 102, 111, 115, 122).
(§2) P. gingivalis ATCC33277 was grown in reduced trypticase soy broth (Difco) supplemented with 0.5 percent yeast extract, 1 μg/mL menadione, and 5 μg/mL hemin. Twenty five milliliters of medium were reduced for 24 h under anaerobic conditions by equilibrating in an atmosphere consisting of 10% CO2, 10% H2, and 80% N2. Following equilibration, P. gingivalis was inoculated in the media and grown for 48 h at 37° C. under anaerobic conditions. S. gordonii DL-1 (1) was cultured aerobically without shaking in brain heart infusion (BHI) broth supplemented with 1 percent yeast extract for 16 hours at 37° C. For some compounds that inhibited P. gingivalis adherence to S. gordonii, we determined their affect the planktonic growth of P. gingivalis and S. gordonii. Broth cultures were grown as described above and compared to cultures grown in the absence of the compound. Cell density of each culture was determined by measuring the optical density at 600 nm (O.D.600 nm) after 24 h of growth. The percent growth inhibition/stimulation was calculated using the following equation: [(O.D.600 nm of the control/O.D.600 nm of the culture grown in the presence of compound)−1]×100.

Another data set has as its system S. gordonii. Briefly: Effect on planktonic growth of S. gordonii. Format: cell-based, S. gordonii DL-1. As to conditions: incubated overnight in the presence of 40 μM compound.
Excerpt: as §1, §2

For data set [1], the system named is P. gingivalis adherence to S. gordonii. As to the kind of experiment: Inhibition of P. gingivalis adherence to S. gordonii in two-species biofilm model. In kind it is cell-based, P. gingivalis ATCC33277; S. gordonii DL-1.
Excerpt: as §1, §2
Two species biofilms were formed essentially as previously described. To prepare bacterial cells for biofilm culture, 10 ml of an overnight S. gordonii culture was centrifuged at 5600 rpm for 5 min and the cell pellet was suspended in 1 mL sterile PBS. Subsequently, 20 μL of 5 mg/ml hexidium iodide (Molecular Probes) was added to the cell suspension and incubated for 15 min with gentle shaking at room temperature in the dark. The labeled cells were centrifuged as described above, washed with phosphate buffered saline (10 mM Na2HPO4, […], […], and 2.7 mM KCl, pH 7.2; [PBS]) and the cell pellet was suspended in PBS at a final O.D.600 nm of 0.8. Similarly, 10 mL of a 48 h culture of P. gingivalis was centrifuged at 5600 rpm for 15 min, the cell pellet was suspended in 1 mL PBS and 20 μl of 5(6)-carboxyfluorescein N-hydroxysuccinimide ester (4 mg/ml, Molecular Probes, Inc.) was added. After incubation for 30 min with gentle shaking at room temperature in the dark, the suspension was centrifuged and washed as described above and suspended in PBS at a final O.D.600 nm of 0.4. […]

For the next data set, the system named is gingival keratinocytes. As to the kind of experiment: Induction of apoptosis in gingival keratinocytes. Format: cell-based. As to conditions: gingival keratinocytes.
In data set [2] the test system is pre-existing 3-species biofilm. As to the kind of experiment: Disruption of a pre-existing 3-species biofilm in vitro. In kind it is cell-based. As to conditions: 20 μM.
[3] abbreviates: read-out: IC50 for inhibition of adherence of P. gingivalis to S. gordonii.
Setting [4] is: Table 3, Group II click products, concentration reducing green to red fluorescence ratio by 50%, approximated.

As for `Fc1ccccc1Nc1nc(Nc2ccccc2F)nc(-c2cn(-c3cccc(-c4nc(-c5ccccc5)c(-c5ccccc5)o4)c3)nn2)n1` [Compound 100], the “effect on growth of planktonic cultures of P. gingivalis” value (“effect on growth … of P. gingivalis” below) in the data set with P. gingivalis is listed as “No effect on growth”. For the same compound, in the data set on S. gordonii, the “effect on growth of planktonic cultures of S. gordonii” value (shortened to “effect on growth … of S. gordonii”) is reported as “No effect on growth”.

Take `CCN(CC)c1nc(-c2cn(-c3ccc(-c4nc(-c5ccc(Cl)cc5)c(-c5ccc(Cl)cc5)o4)cc3)nn2)nc(N(CC)CC)n1` [Compound 95]: the “effect on growth … of P. gingivalis” value in the data set with P. gingivalis is “No effect on growth”. The IC50 is 3.7 µM in data set [1] (Group III) and 2.3 to 5.3 µM in data set [1] (setting [3]). Besides, the early apoptosis in the data set on gingival keratinocytes (5 μM) is 5.02; with gingival keratinocytes (20 μM), 4.89; in the data set with gingival keratinocytes (40 μM), 3.80. The late apoptosis in the data set on gingival keratinocytes (5 μM) came to 4.27; in the data set on gingival keratinocytes (20 μM), 4.26; with gingival keratinocytes (40 μM) it was 2.83. Moreover, the figures for the live cells with gingival keratinocytes (5 μM), with gingival keratinocytes (20 μM) and in the data set on gingival keratinocytes (40 μM) were 88.50, 88.35 and 91.75, respectively. The results for the “disruption of pre-existing 3-species biofilm” value (shortened to “disruption”) in data set [2] (time treated 1 h), in data set [2] (time treated 2 h) and in data set [2] (time treated 3 h) were 16.47, 52.84 and 81, respectively. Also, in the data set with S. gordonii, the “effect on growth … of S. gordonii” value is reported as “No effect on growth”.

`Fc1ccc(Nc2nc(Nc3ccc(F)cc3)nc(-c3cn(-c4ccc(-c5nc(-c6ccc(F)cc6)c(-c6ccc(F)cc6)o5)cc4)nn3)n2)cc1` [Compound 115]: the “effect on growth … of P. gingivalis” value in the data set on P. gingivalis is on record as “No effect on growth”. Besides, the values for the IC50 in data set [1] (Group III) and in data set [1] (setting [3]) were 2.3 µM and 2.3 to 5.3 µM, respectively. Also, the early apoptosis was 3.89 with gingival keratinocytes (5 μM), 4.07 in the data set on gingival keratinocytes (10 μM) and 4.06 in the data set with gingival keratinocytes (20 μM). In addition, the late apoptosis in the data set on gingival keratinocytes (5 μM) is 4.21; in the data set on gingival keratinocytes (10 μM) it was 2.47; in the data set on gingival keratinocytes (20 μM) it was 2.80. Moreover, the live cells with gingival keratinocytes (5 μM) is reported as 87.85; with gingival keratinocytes (10 μM), 91.25; in the data set on gingival keratinocytes (20 μM) it was 91.20. Further, the entries for the “disruption” value in data set [2] (time treated 1 h), in data set [2] (time treated 2 h) and in data set [2] (time treated 3 h) were 15.26, 45.62 and 76.06, respectively. The “effect on growth … of S. gordonii” value with S. gordonii is “No effect on growth”.

In the case of `Fc1ccc(-c2nc(-c3cccc(-n4cc(-c5nc(Nc6ccccc6F)nc(Nc6ccccc6F)n5)nn4)c3)oc2-c2ccc(F)cc2)cc1` [Compound 102], the “effect on growth … of P. gingivalis” value in the data set with P. gingivalis was “No effect on growth”. Moreover, in data set [1] (Group III), the IC50 worked out at 5 µM. In the data set on S. gordonii, the “effect on growth … of S. gordonii” value is reported as “No effect on growth”.

Turning to `COc1ccccc1-c1cn(-c2ccc(S(=O)(=O)Cc3nc(-c4ccc(F)cc4)c(-c4ccc(F)cc4)o3)cc2)nn1` [Compound 54], the “effect on growth … of P. gingivalis” value in the data set with P. gingivalis is reported as “No effect on growth”. Besides, the IC50 in data set [1] (setting [4]) came out at 21.2 µM. Besides, in the data set with S. gordonii, the “effect on growth … of S. gordonii” value was “No effect on growth”.

Take `O=S(=O)(Cc1nc(-c2ccc(Cl)cc2)c(-c2ccc(Cl)cc2)o1)c1ccc(-n2cc(-c3ccc(F)cc3)nn2)cc1` [Compound 56]: the “effect on growth … of P. gingivalis” value with P. gingivalis is reported as “No effect on growth”. For the same compound, the IC50 in data set [1] (setting [4]) came to 6.3 µM. Besides, the “effect on growth … of S. gordonii” value with S. gordonii was “No effect on growth”.

`Fc1ccc(Nc2nc(Nc3ccc(F)cc3)nc(-c3cn(-c4cccc(-c5nc(-c6ccccc6)c(-c6ccccc6)o5)c4)nn3)n2)cc1` [Compound 111]: the IC50 in data set [1] (Group III) is 4.3 µM; in data set [1] (setting [3]), 2.3 to 5.3 µM. The early apoptosis in the data set on gingival keratinocytes (5 μM) is reported as 4.96; in the data set with gingival keratinocytes (20 μM), 5.06; with gingival keratinocytes (60 μM) it was 5.60. In addition, the late apoptosis in the data set with gingival keratinocytes (5 μM) was 2.36; in the data set with gingival keratinocytes (20 μM) it was 3.39; in the data set on gingival keratinocytes (60 μM) it was 4.38. Further, the live cells with gingival keratinocytes (5 μM) came to 89.25; with gingival keratinocytes (20 μM) it was 87.95; with gingival keratinocytes (60 μM), 84.40. Also, the “disruption” value in data set [2] (time treated 1 h) is 0.62; in data set [2] (time treated 2 h) it was 7.33; in data set [2] (time treated 3 h) it was 56.63.

As to `CCN(CC)c1nc(-c2cn(-c3ccc(-c4nc(-c5ccc(F)cc5)c(-c5ccc(F)cc5)o4)cc3)nn2)nc(N(CC)CC)n1` [Compound 93], in the data set with P. gingivalis, the “effect on growth … of P. gingivalis” value is reported as “No effect on growth”. In data set [1] (Group III), this compound returned an IC50 of 9.4 µM. Further, the “effect on growth … of S. gordonii” value with S. gordonii was “No effect on growth”.

As for `Fc1ccc(-c2nc(-c3ccc(-n4cc(-c5nc(Nc6ccccc6F)nc(Nc6ccccc6F)n5)nn4)cc3)oc2-c2ccc(F)cc2)cc1` [Compound 103], the “effect on growth … of P. gingivalis” value with P. gingivalis is on record as “No effect on growth”. For the same compound, inhibition in data set [1] (Group III) was half-maximal at 12.3 µM (IC50). Also, the “effect on growth … of S. gordonii” value with S. gordonii is on record as “No effect on growth”.
